# From patent US20100093817A1, “Compounds” (BIAL - PORTELA & CA S.A., priority 2007, published 2010)
# Where a name gives a salt, the structure may show the parent alone.
# What was measured:
# [1] = biological target: T1, human dopamine-β-hydroxylase (Homo sapiens, UniProt P09172); assay: Human DβH in vitro assay: β-hydroxylation of dopamine to noradrenaline, SK-N-SH cells as enzyme source; assay type: biochemical; design: key to In vitro DβH inhibition: + = inhibitory activity; settings: for In vitro DβH inhibition / IC50: SK-N-SH cells as source of human DβH, 50 mM dopamine, test compounds 0.3 to 10,000 nM; for IC50: read-out: In vitro DβH inhibition (IC50 μM); for % control Mean ± SEM: human DβH in vitro assay
# T1 construct: SK-N-SH cells (ATCC HTB-11), a human neuroblastoma derived cell line, were used as a source of human dopamine-β-hydroxylase; host or cells: SK-N-SH human neuroblastoma cells
# T1 sequence (P09172 1-617): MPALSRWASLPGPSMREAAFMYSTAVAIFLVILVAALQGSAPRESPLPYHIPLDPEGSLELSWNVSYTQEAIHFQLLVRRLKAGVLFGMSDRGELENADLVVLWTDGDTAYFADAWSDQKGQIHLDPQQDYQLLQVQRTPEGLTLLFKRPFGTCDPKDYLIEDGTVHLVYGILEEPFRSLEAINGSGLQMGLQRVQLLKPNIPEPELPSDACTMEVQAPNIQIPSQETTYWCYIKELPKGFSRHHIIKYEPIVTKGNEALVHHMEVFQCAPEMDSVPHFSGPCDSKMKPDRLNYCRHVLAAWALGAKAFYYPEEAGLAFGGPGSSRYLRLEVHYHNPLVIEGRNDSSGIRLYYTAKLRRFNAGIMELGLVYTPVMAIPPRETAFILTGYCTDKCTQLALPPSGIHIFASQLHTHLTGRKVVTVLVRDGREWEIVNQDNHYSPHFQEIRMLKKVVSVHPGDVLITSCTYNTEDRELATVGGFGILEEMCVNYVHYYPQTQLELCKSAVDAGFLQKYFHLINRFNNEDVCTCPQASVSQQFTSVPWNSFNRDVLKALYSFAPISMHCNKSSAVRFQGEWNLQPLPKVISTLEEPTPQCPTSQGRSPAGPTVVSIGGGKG
# Procedure: Dopamine-β-hydroxylase activity was evaluated by the ability to β-hydroxylate dopamine to noradrenaline as previously described (Kojima, K., Parvez, S. and Nagatsu T. 1993. Analysis of enzymes in catecholamine biosynthesis. In Methods in Neurotransmitter and Neuropeptide Research, pp. 349-380: Elsevier Science Publishers). SK-N-SH cells (ATCC HTB-11), a human neuroblastoma derived cell line, were used as a source of human dopamine-β-hydroxylase. SK-N-SH cells cultured in 24 well plates were preincubated for 20 min in a reaction medium containing 200 mM sodium acetate, 30 mM N-ethylmaleimide, 5 μM copper sulphate, 0.5 mg/ml catalase aqueous solution, 1 mM pargyline, 10 mM sodium fumarate and 20 mM ascorbic acid. Thereafter, cells were incubated for further 45 min in the reaction medium with added increasing concentrations of dopamine (0.5 to 100 mM). During preincubation and incubation, the cells were continuously shaken and maintained at 37° C. The reaction was terminated by the addition of 0.2 M perchloric acid. The acidified samples were stored at 4° C. before injection into the high pressure liquid chromatograph for the assay of noradrenaline. In experiments conducted with the aim of studying the effects of new dopamine-β-hydroxylase inhibitors on enzyme activity, test compounds (0.3 to 10,000 nM) of interest were added to the preincubation and incubation solutions; the incubation was performed in the presence of a concentration (50 mM) of dopamine 2.5 times the corresponding Km value as determined in saturation experiments.
# [2] = literature finding; central as well as peripheral effects; cited from earlier work
SMILES,In vitro DβH inhibition [1],IC50 [1] [µM],% control Mean ± SEM ([1]; compound at 0.5 μM) [% control],% control Mean ± SEM ([1]; compound at 1 μM) [% control],% control Mean ± SEM ([1]; compound at 5 μM) [% control],crossing of the blood brain barrier (BBB) [2]
"NCCc1c[nH]c(=S)n1[C@H]1COc2c(F)cc(F)cc2C1 [Compound I, (R)-5-(2-aminoethyl)-1-(6,8-difluorochroman-3-yl)-1,3-dihydroimidazole-2-thione, reference compound]",+,0.2,,,,
"O=S(=O)([O-])NCCc1c[nH]c(=S)n1[C@H]1COc2c(F)cc(F)cc2C1.[Na+] [compound VIII, Sodium (R)-2-(3-(6,8-difluorochroman-3-yl)-2-thioxo-2,3-dihydro-1H-imidazol-4-yl)ethylsulfamate]",+,,32.1 ± 1.1,20.3 ± 0.7,3.5 ± 1.1,
"NCc1c[nH]c(=S)n1[C@H]1CCc2c(F)cc(F)cc2C1 [Nepicastat, reference compound]",,,,,0.4 ± 0.2,cross the blood brain barrier
"CC(=O)NCCc1c[nH]c(=S)n1[C@H]1COc2c(F)cc(F)cc2C1 [compound II, (R)-N-(2-(3-(6,8-difluorochroman-3-yl)-2-thioxo-2,3-dihydro-1H-imidazol-4-yl)ethyl)acetamide]",+,0.5,,,,

# More lines, main results first:
In vitro DβH inhibition [1],IC50 [1] [µM],SMILES,% control Mean ± SEM ([1]; compound at 0.5 μM) [% control],% control Mean ± SEM ([1]; compound at 1 μM) [% control],% control Mean ± SEM ([1]; compound at 5 μM) [% control],crossing of the blood brain barrier (BBB) [2]
+,1.8,"NC(=O)Cc1c[nH]c(=S)n1[C@H]1COc2c(F)cc(F)cc2C1 [compound IV, (R)-2-(3-(6,8-difluorochroman-3-yl)-2-thioxo-2,3-dihydro-1H-imidazol-4-yl)acetamide]",,,,
+,,"NCCc1c[nH]c(=S)n1[C@H]1COc2c(F)cc(F)cc2[C@@H]1O [compound VI, 5-(2-Aminoethyl)-1-((3S ,4S)-6,8-difluoro-4-hydroxychroman-3-yl)-1H-imidazole-2(3H)-thione hydrochloride]",,,,
+,0.6,"O=C(O)Cc1c[nH]c(=S)n1[C@H]1COc2c(F)cc(F)cc2C1 [compound III, (R)-2-(3-(6,8-difluorochroman-3-yl)-2-thioxo-2,3-dihydro-1H-imidazol-4-yl)acetic acid]",,,,
+,0.5,"ONCCc1c[nH]c(=S)n1[C@H]1COc2c(F)cc(F)cc2C1 [compound V, (R)-1-(6,8-difluorochroman-3-yl)-5-(2-(hydroxyamino)ethyl)-1H-imidazole-2(3H)-thione hydrochloride]",,,,
